According to ChEMBL document CHEMBL1201862, “PubChem BioAssay data set” (2004):
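1) Cells in 96-well plates. 2) Compound, 48 h, 5 concentrations. 3) Linear interpolation between surrounding doses. 4) Unreached endpoint = highest concentration. The concentration for 50% growth inhibition is given as GI50.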 Active and inactive are the calls of the source. Cut-off read from the data, not from the text of the source: active = GI50 up to about 1.1 µM and inactive = higher.

Assays:
Experiment in all cases: NCI tumour cell line growth inhibition, 48 h
SN12C = tested on: SN12C
SK-MEL-2 = tested on: SK-MEL-2
RPMI-8226 = tested on: RPMI-8226
SR = tested on: SR
RXF 393 = tested on: RXF 393
EKVX = tested on: EKVX
SNB-19 = tested on: SNB-19
NCI-H460 = tested on: NCI-H460
HCC 2998 = tested on: HCC 2998
TK-10 = tested on: TK-10
HL-60 = tested on: HL-60
CCRF-CEM = tested on: CCRF-CEM
SW-620 = tested on: SW-620
SK-OV-3 = tested on: SK-OV-3
SF-268 = tested on: SF-268
UACC-257 = tested on: UACC-257
ACHN = tested on: ACHN
NCI/ADR-RES = tested on: NCI/ADR-RES
SK-MEL-5 = tested on: SK-MEL-5
MDA-MB-435 = tested on: MDA-MB-435

| SMILES | GI50 (SN12C) | GI50 (SK-MEL-2) | GI50 (RPMI-8226) | GI50 (SR) | GI50 (RXF 393) | GI50 (EKVX) | GI50 (SNB-19) | GI50 (NCI-H460) | GI50 (HCC 2998) | GI50 (TK-10) | GI50 (HL-60) | GI50 (CCRF-CEM) | GI50 (SW-620) | GI50 (SK-OV-3) | GI50 (SF-268) | GI50 (UACC-257) | GI50 (ACHN) | GI50 (NCI/ADR-RES) | GI50 (SK-MEL-5) | GI50 (MDA-MB-435) |
| --- | --- | --- | --- | --- | --- | --- | --- | --- | --- | --- | --- | --- | --- | --- | --- | --- | --- | --- | --- | --- |
| CN(Cc1ccccc1)C(=O)c1ccccc1C(=O)O | > 100 µM (inactive) | > 100 µM (inactive) | > 100 µM (inactive) | > 100 µM (inactive) | > 100 µM (inactive) | > 100 µM (inactive) | > 100 µM (inactive) | > 100 µM (inactive) | > 100 µM (inactive) | > 100 µM (inactive) | > 100 µM (inactive) | > 100 µM (inactive) | > 100 µM (inactive) | > 100 µM (inactive) | > 100 µM (inactive) | > 100 µM (inactive) | > 100 µM (inactive) |  |  |  |
| Cc1cc(S(=O)(=O)Nc2nc(N)nc(N(C)C)n2)c(SC(C(=O)O)c2ccccc2)cc1Cl (stereo not drawn) | > 10 µM (inactive) | > 10 µM (inactive) | > 10 µM (inactive) | > 10 µM (inactive) | > 10 µM (inactive) | > 10 µM (inactive) | > 10 µM (inactive) | > 10 µM (inactive) | > 10 µM (inactive) | > 10 µM (inactive) | > 10 µM (inactive) | > 10 µM (inactive) | > 10 µM (inactive) | > 10 µM (inactive) | > 10 µM (inactive) | > 10 µM (inactive) | > 10 µM (inactive) | > 10 µM (inactive) | > 10 µM (inactive) |  |
| N[C@H]1C2C3CC4C5CC(C42)C1(c1ccccc1)C53 (stereo partly drawn) | > 100 µM (inactive) | > 100 µM (inactive) | > 100 µM (inactive) | > 100 µM (inactive) | 45.1 µM (inactive) | > 100 µM (inactive) | > 100 µM (inactive) | > 100 µM (inactive) | 29.7 µM (inactive) | > 100 µM (inactive) | > 100 µM (inactive) | > 100 µM (inactive) | > 100 µM (inactive) | > 100 µM (inactive) | > 100 µM (inactive) | > 10 µM (inactive) | > 100 µM (inactive) |  | > 100 µM (inactive) |  |
| C/C(N)=[N+](/C)[O-] | 92.9 µM (inactive) | > 100 µM (inactive) | > 100 µM (inactive) | 23.8 µM (inactive) | > 100 µM (inactive) | > 100 µM (inactive) |  | 25.4 µM (inactive) | 36.9 µM (inactive) | > 100 µM (inactive) | > 100 µM (inactive) | 23.4 µM (inactive) |  | > 100 µM (inactive) | 46.3 µM (inactive) | > 100 µM (inactive) | 31.6 µM (inactive) |  | > 100 µM (inactive) |  |
| CCc1cccc(C)c1NC(=O)C(=O)Cc1nc2ccccc2s1 | > 100 µM (inactive) | > 100 µM (inactive) |  | > 100 µM (inactive) | > 100 µM (inactive) | > 100 µM (inactive) | > 100 µM (inactive) | > 100 µM (inactive) | > 100 µM (inactive) | > 100 µM (inactive) | > 100 µM (inactive) | > 100 µM (inactive) | 0.371 µM (active) | > 100 µM (inactive) | > 100 µM (inactive) | > 100 µM (inactive) | > 100 µM (inactive) |  | > 100 µM (inactive) |  |
| COc1cccc2c1C(=O)c1c(O)c3c(c(O)c1C2=O)C[C@@](O)(C(=O)CO)C[C@@H]3OC1CC(N)C(OC)C(C)O1 (stereo partly drawn) | 0.0378 µM (active) | 0.161 µM (active) | 0.024 µM (active) | < 0.0157 µM (active) | 0.19 µM (active) | 0.522 µM (active) | 0.0452 µM (active) | < 0.01 µM (active) | 0.139 µM (active) | 0.838 µM (active) | < 0.0163 µM (active) | < 0.0146 µM (active) | 0.0249 µM (active) | 0.0767 µM (active) | 0.0726 µM (active) | 0.282 µM (active) | 0.0242 µM (active) |  | 0.0362 µM (active) | 0.267 µM (active) |
| Oc1c(NCn2nc(CCCCCCCCc3nn(CNc4ccc5ccccc5c4O)c(=S)o3)oc2=S)ccc2ccccc12 | > 100 µM (inactive) | 42.8 µM (inactive) | 46.8 µM (inactive) |  | 30.1 µM (inactive) | > 100 µM (inactive) | > 100 µM (inactive) | > 100 µM (inactive) | > 100 µM (inactive) | 68.1 µM (inactive) |  |  | 35.6 µM (inactive) | > 100 µM (inactive) | > 100 µM (inactive) | 75.5 µM (inactive) | > 100 µM (inactive) | 44.5 µM (inactive) | 30.4 µM (inactive) | 12.5 µM (inactive) |
| CC(=O)O[C@H]1C[C@](C)(O)[C@@]23CC([C@@H](OC(=O)C(C)(C)O)[C@@H](OC(C)=O)C2(COC(=O)c2ccccc2)[C@H]1OC(C)=O)C(C)(C)O3 (stereo partly drawn) | > 100 µM (inactive) | 86.5 µM (inactive) | 23.6 µM (inactive) |  | > 100 µM (inactive) | > 100 µM (inactive) | > 100 µM (inactive) | > 100 µM (inactive) | > 100 µM (inactive) | > 100 µM (inactive) |  | 41.1 µM (inactive) | > 100 µM (inactive) | > 100 µM (inactive) | > 100 µM (inactive) | > 100 µM (inactive) | > 100 µM (inactive) | > 100 µM (inactive) | 77.6 µM (inactive) | > 100 µM (inactive) |
| CCOC(=O)C1(C/C=C\CBr)CCCC1=O (stereo not drawn) | 18.4 µM (inactive) | 31.3 µM (inactive) |  |  | 16.6 µM (inactive) | > 100 µM (inactive) | 38.3 µM (inactive) |  |  | 13.2 µM (inactive) |  |  | 22.4 µM (inactive) | 83.9 µM (inactive) | 32.5 µM (inactive) | 39 µM (inactive) | 20.4 µM (inactive) | 25.5 µM (inactive) | 26.7 µM (inactive) | 22.1 µM (inactive) |
| CCOC(=O)c1c(N2CCCC2)nsc1Nc1ccccc1 | > 100 µM (inactive) | > 100 µM (inactive) | > 100 µM (inactive) | > 100 µM (inactive) | > 100 µM (inactive) | > 100 µM (inactive) | > 100 µM (inactive) | > 100 µM (inactive) | > 100 µM (inactive) | > 100 µM (inactive) | > 100 µM (inactive) | > 100 µM (inactive) | > 100 µM (inactive) |  | > 100 µM (inactive) | > 100 µM (inactive) | > 100 µM (inactive) | > 100 µM (inactive) | > 100 µM (inactive) |  |
| C/N=N/N(C)C(=O)NC | > 100 µM (inactive) | > 100 µM (inactive) | > 100 µM (inactive) | > 100 µM (inactive) | > 100 µM (inactive) |  | > 100 µM (inactive) | > 100 µM (inactive) | > 100 µM (inactive) | > 100 µM (inactive) | > 100 µM (inactive) | > 100 µM (inactive) | > 100 µM (inactive) | > 100 µM (inactive) | > 100 µM (inactive) |  | > 100 µM (inactive) |  | > 100 µM (inactive) |  |
| O=C1CN(C(=O)c2ccccc2)Cc2[nH]c3ccccc3c21 | > 100 µM (inactive) | > 100 µM (inactive) | > 100 µM (inactive) | > 100 µM (inactive) | > 100 µM (inactive) | > 100 µM (inactive) | > 100 µM (inactive) | > 100 µM (inactive) | > 100 µM (inactive) | > 100 µM (inactive) | > 100 µM (inactive) | > 100 µM (inactive) | > 100 µM (inactive) | > 100 µM (inactive) |  | > 100 µM (inactive) | > 100 µM (inactive) |  | > 100 µM (inactive) |  |
| CC(=O)NC1C(OCc2ccccc2)OC(CO)C(O)C1OC(C)C(=O)NC(C(=O)NC(CCC(=O)NCCCNc1ccc([N+](=O)[O-])c2[nH]c3ccccc3c(=O)c12)C(N)=O)C(C)C (stereo not drawn) | > 100 µM (inactive) | > 100 µM (inactive) |  |  |  | > 100 µM (inactive) | > 100 µM (inactive) | > 100 µM (inactive) |  | > 100 µM (inactive) | > 100 µM (inactive) | > 100 µM (inactive) | > 100 µM (inactive) | > 100 µM (inactive) | > 100 µM (inactive) | > 100 µM (inactive) | > 100 µM (inactive) | > 100 µM (inactive) | > 100 µM (inactive) | > 100 µM (inactive) |
| O/N=N/c1ccc(Sc2ccc(/N=N/O)cn2)nc1 | > 100 µM (inactive) |  |  | > 100 µM (inactive) |  | > 100 µM (inactive) | > 100 µM (inactive) | > 100 µM (inactive) | > 100 µM (inactive) | > 100 µM (inactive) | > 100 µM (inactive) | > 100 µM (inactive) | > 100 µM (inactive) | > 100 µM (inactive) | > 100 µM (inactive) | > 100 µM (inactive) | > 100 µM (inactive) | > 100 µM (inactive) | > 100 µM (inactive) |  |
| COC(=O)[C@@H]1C[C@H](c2ccc(OC)c(OC)c2)OC1=O.COC(=O)[C@H]1C[C@H](c2ccc(OC)c(OC)c2)OC1=O | > 100 µM (inactive) |  | > 100 µM (inactive) | > 100 µM (inactive) | > 100 µM (inactive) | > 100 µM (inactive) | > 100 µM (inactive) | > 100 µM (inactive) | 61.9 µM (inactive) | > 100 µM (inactive) | > 100 µM (inactive) | > 100 µM (inactive) | > 100 µM (inactive) | > 100 µM (inactive) | > 100 µM (inactive) | > 100 µM (inactive) | > 100 µM (inactive) |  | > 100 µM (inactive) |  |
| COc1cc(C(=O)N[C@H]2CCc3cc(OC)c(OC)c(OC)c3-c3ccc(SC)c(=O)cc32)cc(OC)c1OC | 0.0204 µM (active) | 0.0102 µM (active) | 0.0115 µM (active) | 0.0126 µM (active) | 0.00752 µM (active) | 0.0106 µM (active) | 0.00871 µM (active) | 0.00615 µM (active) | 0.0113 µM (active) | 0.215 µM (active) | 0.00847 µM (active) | 0.00705 µM (active) | 0.00741 µM (active) | 0.00655 µM (active) | 0.0218 µM (active) | 0.0586 µM (active) | 0.136 µM (active) |  | 0.0132 µM (active) |  |
